Source: ChEMBL document CHEMBL2417533, “Apratoxin H and apratoxin A sulfoxide from the Red Sea cyanobacterium Moorea producens” (J Nat Prod, 2013)

Test system: NCI-H460
Test: Cytotoxicity against human NCI-H460 cells after 48 hrs by MTT assay
Assay type: functional, cell-based
Settings: NCI-H460, 48 h

SMILES	IC50 [nM]
CC[C@H](C)[C@H]1C(=O)N2CCC[C@H]2C(=O)O[C@H](C(C)(C)C)C[C@@H](C)C[C@H](O)[C@H](C)C2=N[C@@H](/C=C(\C)C(=O)N[C@@H](Cc3ccc(OC)cc3)C(=O)N(C)[C@@H](C)C(=O)N1C)C[S+]2[O-] (stereo partly drawn)	89.9
CC[C@H](C)[C@H]1C(=O)N2CCCC[C@H]2C(=O)O[C@H](C(C)(C)C)C[C@@H](C)C[C@H](O)[C@H](C)C2=N[C@@H](/C=C(\C)C(=O)N[C@@H](Cc3ccc(OC)cc3)C(=O)N(C)[C@@H](C)C(=O)N1C)CS2	3.4
CC[C@H](C)[C@H]1C(=O)N2CCC[C@H]2C(=O)O[C@H](C(C)(C)C)C[C@@H](C)C[C@H](O)[C@H](C)C2=N[C@@H](/C=C(\C)C(=O)N[C@@H](Cc3ccc(OC)cc3)C(=O)N(C)[C@@H](C)C(=O)N1C)CS2 [APRATOXIN A]	2.5
